Results published in patent US6355799B1, “Substituted benzene compounds, process for their preparation, and herbicidal and defoliant compositions containing them” (ISK Americas Incorporated, priority 1997, dated 2002).

Legend:
Type in all cases: in vivo
[1] = test system: redroot pigweed (Amaranthus retroflexus, AMARE); assay: Pre-emerge test, greenhouse herbicide activity screening; settings: rating scale 0-100, 14 days after application
How it was run: (§1)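 Rating: 0–100 visual injury, 14 DAA. Application: acetone, 187 l/ha, 15–1000 g ai/ha, flat-fan track sprayer with nozzle 40–45 cm above soil or canopy. Post-emerge runs used 0.25% v/v surfactant on 2–3 leaf plants.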

[2] = test system: upland rice (Oryza sp., var. Tebonnet, RICE); assay: Post-emerge test, crop safety; settings: 14 days after application; for Post-emerge Herbicidal Activity RICE (crop damage rating): rating scale 0-100; for Post-emerge phytotoxicity rating RICE (crop damage): rating scale 0-100 (0 no damage, 100 complete death)
How it was run: (§2)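 Visual ratings on a 0-100 scale (0 no damage, 100 all plants dead) were taken at 14 days after treatment. Rates of 15-1000 g ai/ha in acetone, 187 l/ha, were sprayed onto soil one day after planting (pre-emerge) or onto 2-3 leaf plants with 0.25% v/v surfactant (post-emerge).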

[3] = test system: field corn (Zea mays L., var. Dekalb 535, CORN); assay: Post-emerge test, crop safety; settings: 14 days after application; for Post-emerge Herbicidal Activity CORN (crop damage rating): rating scale 0-100; for Post-emerge phytotoxicity rating CORN (crop damage): rating scale 0-100 (0 no damage, 100 complete death)
How it was run: as §2

[4] = test system: upland rice (Oryza sp., var. Tebonnet, RICE); assay: Pre-emerge test, crop safety; settings: rating scale 0-100, 14 days after application
How it was run: (§3)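 Plants grown in 10 cm pots of sandy loam mix received acetone-dissolved compounds through a moving flat-fan nozzle. Doses ranged from 15 to 1000 g ai/ha. Pre-emerge pots were seeded one day earlier, post-emerge pots 8–21 days earlier. Fourteen days on, each pot was graded 0–100 for damage.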

[5] = test system: field corn (Zea mays L., var. Dekalb 535, CORN); assay: Pre-emerge test, crop safety; settings: rating scale 0-100, 14 days after application
How it was run: as §3

[6] = test system: sicklepod (Cassia obtusifolia, CASOB); assay: Pre-emerge test, greenhouse herbicide activity screening; settings: rating scale 0-100, 14 days after application
How it was run: as §2

[7] = test system: barnyardgrass (Echinochloa crus-galli, ECHCG); assay: as above; settings: rating scale 0-100, 14 days after application
How it was run: as §2

[8] = test system: johnsongrass (Sorghum halepense, SORHA); assay: as above; settings: rating scale 0-100, 14 days after application
How it was run: as §2

[9] = test system: lambsquarters (Chenopodium album, CHEAL); assay: as above; settings: rating scale 0-100, 14 days after application
How it was run: as §2

[10] = test system: ivyleaf morningglory (Ipomoea hederacea, IPOHE); assay: as above; settings: rating scale 0-100, 14 days after application
How it was run: as §2

[11] = test system: green foxtail (Setaria viridis, SETVI); assay: as above; settings: rating scale 0-100, 14 days after application
How it was run: as §2

[12] = test system: large crabgrass (Digitaria sanguinalis, DIGSA); assay: as above; settings: rating scale 0-100, 14 days after application
How it was run: as §2

[13] = test system: velvetleaf (Abutilon theophrasti, ABUTH); assay: as above; settings: rating scale 0-100, 14 days after application
How it was run: as §2

[14] = test system: sicklepod (Cassia obtusifolia, CASOB); assay: Post-emerge test, greenhouse herbicide activity screening; settings: 14 days after application; for Post-emerge Herbicidal Activity CASOB (phytotoxicity rating): rating scale 0-100; for Post-emerge Herbicidal Activity, phytotoxicity rating CASOB: rating scale 0-100 (0 no damage, 100 complete death)
How it was run: as §1

[15] = test system: common ragweed (Ambrosia artemisizfolia L., AMBEL); assay: as above; settings: post-emerge, 14 days after application, rating scale 0-100
How it was run: as §1

[16] = test system: barnyardgrass (Echinochloa crus-galli, ECHCG); assay: as above; settings: 14 days after application; for Post-emerge Herbicidal Activity ECHCG (phytotoxicity rating): rating scale 0-100; for Post-emerge Herbicidal Activity, phytotoxicity rating ECHCG: rating scale 0-100 (0 no damage, 100 complete death)
How it was run: as §1

[17] = test system: johnsongrass (Sorghum halepense, SORHA); assay: as above; settings: rating scale 0-100 (0 no damage, 100 complete death), 14 days after application
How it was run: as §1

[18] = test system: lambsquarters (Chenopodium album, CHEAL); assay: as above; settings: 14 days after application; for Post-emerge Herbicidal Activity CHEAL (phytotoxicity rating): rating scale 0-100; for Post-emerge Herbicidal Activity, phytotoxicity rating CHEAL: rating scale 0-100 (0 no damage, 100 complete death)
How it was run: as §1

[19] = test system: redroot pigweed (Amaranthus retroflexus, AMARE); assay: as above; settings: 14 days after application
How it was run: as §1

[20] = test system: ivyleaf morningglory (Ipomoea hederacea, IPOHE); assay: as above; settings: 14 days after application; for Post-emerge Herbicidal Activity IPOHE (phytotoxicity rating): rating scale 0-100; for Post-emerge Herbicidal Activity, phytotoxicity rating IPOHE: rating scale 0-100 (0 no damage, 100 complete death)
How it was run: as §1

[21] = test system: green foxtail (Setaria viridis, SETVI); assay: as above; settings: 14 days after application; for Post-emerge Herbicidal Activity SETVI (phytotoxicity rating): rating scale 0-100; for Post-emerge Herbicidal Activity, phytotoxicity rating SETVI: rating scale 0-100 (0 no damage, 100 complete death)
How it was run: as §1

[22] = test system: large crabgrass (Digitaria sanguinalis, DIGSA); assay: as above; settings: 14 days after application; for Post-emerge Herbicidal Activity DIGSA (phytotoxicity rating): rating scale 0-100; for Post-emerge Herbicidal Activity, phytotoxicity rating DIGSA: rating scale 0-100 (0 no damage, 100 complete death)
How it was run: as §1

[23] = test system: velvetleaf (Abutilon theophrasti, ABUTH); assay: as above; settings: 14 days after application; for Post-emerge Herbicidal Activity ABUTH (phytotoxicity rating): rating scale 0-100; for Post-emerge Herbicidal Activity, phytotoxicity rating ABUTH: rating scale 0-100 (0 no damage, 100 complete death)
How it was run: as §1

Compound: C#CCOC(=O)C(C)(Cl)Cc1c(OC)c(Cl)cc(F)c1-n1c(=O)cc(C(F)(F)F)n(C)c1=O (stereo not drawn) [14-44]
- Pre-emerge herbicidal activity, phytotoxicity rating AMARE ([1]; 63 g ai/ha): 70
- Pre-emerge herbicidal activity, phytotoxicity rating AMARE ([1]; 250 g ai/ha): 100
- Post-emerge Herbicidal Activity RICE (crop damage rating) ([2]; 63 g ai/ha): 5
- Post-emerge Herbicidal Activity RICE (crop damage rating) ([2]; 250 g ai/ha): 0
- Post-emerge phytotoxicity rating RICE (crop damage) ([2]; Rate 63 g ai/ha): 90
- Post-emerge phytotoxicity rating RICE (crop damage) ([2]; Rate 250 g ai/ha): 100
- Post-emerge Herbicidal Activity CORN (crop damage rating) ([3]; 63 g ai/ha): 99
- Post-emerge Herbicidal Activity CORN (crop damage rating) ([3]; 250 g ai/ha): 100
- Post-emerge phytotoxicity rating CORN (crop damage) ([3]; Rate 63 g ai/ha): 100
- Post-emerge phytotoxicity rating CORN (crop damage) ([3]; Rate 250 g ai/ha): 100
- Pre-emerge phytotoxicity rating, crop damage RICE ([4]; 63 g ai/ha): 0
- Pre-emerge phytotoxicity rating, crop damage RICE ([4]; 250 g ai/ha): 50
- Pre-emerge phytotoxicity rating, crop damage CORN ([5]; 63 g ai/ha): 0
- Pre-emerge phytotoxicity rating, crop damage CORN ([5]; 250 g ai/ha): 0
- Pre-emerge herbicidal activity, phytotoxicity rating CASOB ([6]; 63 g ai/ha): 0
- Pre-emerge herbicidal activity, phytotoxicity rating CASOB ([6]; 250 g ai/ha): 0
- Pre-emerge herbicidal activity, phytotoxicity rating ECHCG ([7]; 63 g ai/ha): 0
- Pre-emerge herbicidal activity, phytotoxicity rating ECHCG ([7]; 250 g ai/ha): 50
- Pre-emerge herbicidal activity, phytotoxicity rating SORHA ([8]; 63 g ai/ha): 0
- Pre-emerge herbicidal activity, phytotoxicity rating SORHA ([8]; 250 g ai/ha): 0
- Pre-emerge herbicidal activity, phytotoxicity rating CHEAL ([9]; 63 g ai/ha): 70
- Pre-emerge herbicidal activity, phytotoxicity rating CHEAL ([9]; 250 g ai/ha): 100
- Pre-emerge herbicidal activity, phytotoxicity rating IPOHE ([10]; 63 g ai/ha): 0
- Pre-emerge herbicidal activity, phytotoxicity rating IPOHE ([10]; 250 g ai/ha): 0
- Pre-emerge herbicidal activity, phytotoxicity rating SETVI ([11]; 63 g ai/ha): 0
- Pre-emerge herbicidal activity, phytotoxicity rating SETVI ([11]; 250 g ai/ha): 70
- Pre-emerge herbicidal activity, phytotoxicity rating DIGSA ([12]; 63 g ai/ha): 0
- Pre-emerge herbicidal activity, phytotoxicity rating DIGSA ([12]; 250 g ai/ha): 90
- Pre-emerge herbicidal activity, phytotoxicity rating ABUTH ([13]; 63 g ai/ha): 80
- Pre-emerge herbicidal activity, phytotoxicity rating ABUTH ([13]; 250 g ai/ha): 100
- Post-emerge Herbicidal Activity CASOB (phytotoxicity rating) ([14]; 63 g ai/ha): 10
- Post-emerge Herbicidal Activity CASOB (phytotoxicity rating) ([14]; 250 g ai/ha): 20
- Post-emerge Herbicidal Activity, phytotoxicity rating CASOB ([14]; Rate 63 g ai/ha): 0
- Post-emerge Herbicidal Activity, phytotoxicity rating CASOB ([14]; Rate 250 g ai/ha): 0
- Post-emerge Herbicidal Activity AMBEL (phytotoxicity rating) ([15]; 63 g ai/ha): 30
- Post-emerge Herbicidal Activity AMBEL (phytotoxicity rating) ([15]; 250 g ai/ha): 40
- Post-emerge Herbicidal Activity ECHCG (phytotoxicity rating) ([16]; 63 g ai/ha): 100
- Post-emerge Herbicidal Activity ECHCG (phytotoxicity rating) ([16]; 250 g ai/ha): 100
- Post-emerge Herbicidal Activity, phytotoxicity rating ECHCG ([16]; Rate 63 g ai/ha): 100
- Post-emerge Herbicidal Activity, phytotoxicity rating ECHCG ([16]; Rate 250 g ai/ha): 100
- Post-emerge Herbicidal Activity, phytotoxicity rating SORHA ([17]; Rate 63 g ai/ha): 30
- Post-emerge Herbicidal Activity, phytotoxicity rating SORHA ([17]; Rate 250 g ai/ha): 80
- Post-emerge Herbicidal Activity CHEAL (phytotoxicity rating) ([18]; 63 g ai/ha): 70
- Post-emerge Herbicidal Activity CHEAL (phytotoxicity rating) ([18]; 250 g ai/ha): 99
- Post-emerge Herbicidal Activity, phytotoxicity rating CHEAL ([18]; Rate 63 g ai/ha): 100
- Post-emerge Herbicidal Activity, phytotoxicity rating CHEAL ([18]; Rate 250 g ai/ha): 100
- Post-emerge Herbicidal Activity AMARE (phytotoxicity rating) ([19]; 63 g ai/ha, rating scale 0-100 (0 no damage, 100 complete death)): 100
- Post-emerge Herbicidal Activity AMARE (phytotoxicity rating) ([19]; 250 g ai/ha, rating scale 0-100): 100
- Post-emerge Herbicidal Activity, phytotoxicity rating AMARE ([19]; Rate 63 g ai/ha, rating scale 0-100 (0 no damage, 100 complete death)): 100
- Post-emerge Herbicidal Activity, phytotoxicity rating AMARE ([19]; Rate 250 g ai/ha, rating scale 0-100 (0 no damage, 100 complete death)): 100
- Post-emerge Herbicidal Activity IPOHE (phytotoxicity rating) ([20]; 63 g ai/ha): 30
- Post-emerge Herbicidal Activity IPOHE (phytotoxicity rating) ([20]; 250 g ai/ha): 80
- Post-emerge Herbicidal Activity, phytotoxicity rating IPOHE ([20]; Rate 63 g ai/ha): 50
- Post-emerge Herbicidal Activity, phytotoxicity rating IPOHE ([20]; Rate 250 g ai/ha): 90
- Post-emerge Herbicidal Activity SETVI (phytotoxicity rating) ([21]; 63 g ai/ha): 30
- Post-emerge Herbicidal Activity SETVI (phytotoxicity rating) ([21]; 250 g ai/ha): 70
- Post-emerge Herbicidal Activity, phytotoxicity rating SETVI ([21]; Rate 63 g ai/ha): 100
- Post-emerge Herbicidal Activity, phytotoxicity rating SETVI ([21]; Rate 250 g ai/ha): 100
- Post-emerge Herbicidal Activity DIGSA (phytotoxicity rating) ([22]; 63 g ai/ha): 40
- Post-emerge Herbicidal Activity DIGSA (phytotoxicity rating) ([22]; 250 g ai/ha): 99
- Post-emerge Herbicidal Activity, phytotoxicity rating DIGSA ([22]; Rate 63 g ai/ha): 100
- Post-emerge Herbicidal Activity, phytotoxicity rating DIGSA ([22]; Rate 250 g ai/ha): 100
- Post-emerge Herbicidal Activity ABUTH (phytotoxicity rating) ([23]; 63 g ai/ha): 100
- Post-emerge Herbicidal Activity ABUTH (phytotoxicity rating) ([23]; 250 g ai/ha): 100
- Post-emerge Herbicidal Activity, phytotoxicity rating ABUTH ([23]; Rate 63 g ai/ha): 100
- Post-emerge Herbicidal Activity, phytotoxicity rating ABUTH ([23]; Rate 250 g ai/ha): 100
